In US5925667A, “Pyrrolidine derivative, anti-ulcer drug, and antibacterial drug” (Shiseido Co., Ltd., priority 1997, dated 1999):

Key:
[1] = test system: isolated gastric fundic gland; experiment: CAP: Acid Secretion Inhibition Test In Vitro ([14C]-aminopyrine uptake test); assay type: cell-based, male Japanese White rabbit; settings: Oryctolagus cuniculus; final concentration 10^-5 M, histamine 10^-5 M; read-out: acid secretion inhibitory rate (CAP)
Experimental: CAP: Acid Secretion Inhibition Test In Vitro
The acid secretion inhibitory activity in a cell level is studied. It can also be used for studying the mechanism of the effect.
ii-a) Preparation of isolated gastric fundus gland suspension
First, an isolated gastric fundic gland sample was prepared. Namely, a male Japanese White rabbit (2.5 to 3 kg) was anesthetized to death with Nembutal™ and then the abdomen was incised. Immediately thereafter, the stomach was removed and, after its pyloric and cardiac antrum were severed, incised along its greater curvature into two sheets. The gastric contents adhering to the mucosal surface was washed out with ice-cooled PBS (-) and then carefully washed therein. The gastric wall was spread on a cork board with its mucosal surface facing up and the feed and mucus thereon were completely removed with sterile gauze. The mucosa was separated therefrom by a spatula and then collected in ice-cooled PBS (-). After being washed twice with PBS (-), the mucosa was minced into 2-3 mm^3 pieces by scissors. These pieces were further washed twice with a nutrient solution. The nutrient solution comprises 132.4 mM of NaCl, 5.4 mM of KCl, 5 mM of Na2 HPO4.12H2 O, 1 mM of NaH2 PO4.2H2,
1.2 mM of MgSO4, 1 mM of CaCl2, 25 mM of HEPES, 2 mg/ml of glucose, and 1 mg/ml of BSA.
Into 70 ml of the nutrient solution containing 1 mg/ml of collagenase, minced mucosal pieces were dispersed and intensely stirred in a conical flask with a stirrer at 37° C. for 40 to 60 minutes. During this period, 100% O2 was sprayed on the nutrient solution surface and the pH was appropriately measured such that it was immediately adjusted to pH 7.4, when the value was therebelow, with a base. The nutrient solution was added to the reaction solution so as to attain the total amount of about 200 ml. After being filtered through a mesh, the suspension was divisionally introduced into 50 ml centrifuge tubes and left for 15 minutes such that gastric fundic gland was deposited. The supernatant was repeatedly removed by an aspirator, dispersed in the nutrient solution, and then left such that the gastric fundic gland was washed three times. At this time, without using a pipette, the suspension was alternately introduced into two centrifuge tubes so as to effect dispersion. The number of cells was counted under microscope and adjusted to 1.6×10^6 cells/ml.
ii-b) [^14 C]-aminopyrine uptake test.
Then, [^14 C]-aminopyrine uptake test was performed. After an Eppendorf tube was weighed, 10 μl (final concentration: 10^-5 M) of histamine dissolved in the above-mentioned nutrient solution, 10 μl (final concentration: 10^-5 M) of the test compound dissolved in DMSO, and 10 μl (final concentration: 0.05 μCi/ml) of [^14 C]-aminopyrine diluted with the nutrient solution were introduced therein and then 970 μl of the isolated gastric fundic gland suspension prepared above was added thereto. Subsequently, this mixture was shaken at 37° C. for 40 minutes at 125 cycles/minute. After being centrifuged for 30 seconds, 200 μl of its supernatant was collected into a mini-vial, while the rest was removed by an aspirator. The gland pellet was completely dried as the tube with its lid being opened was kept for one night in a drying oven at 80° C. and then the lid was closed and the weight was determined at room temperature. Then 100 μl of 1N KOH was added thereto and the tube with its lid being closed was treated at 60° C. for 1 to 2 hours so as to dissolve the pellet. Then, the contents thereof were transferred to a mini-vial. Into the mini-vial containing the supernatant or gland pellet, 4 ml of Atomlite™ was added and then the radioactivity was measured by a liquid scintillation counter. Here, after the radioactivity of the gland pellet was corrected by using a sample in which 20 mM of NaSCN was added so as to cancel the hydrogen ion concentration gradient, the integration ratio of aminopyrine specifically trapped by the gland pellet was calculated. […]

Slc:ICR mice = test system: Slc:ICR mice; set-up: species or system male Slc:ICR mice; settings: mouse, in vivo
Experimental: AT: Single Dose Toxicity Pretest
Male Slc:ICR mice (5-week-old) were used. Each group has 3 to 5 mice and each mouse was fasted, but allowed free access to water, for 4 to 5 hours from 9 a.m. in the test day. Then, 2,000 mg/10 ml/kg of the sample compound dissolved or suspended in an aqueous solution of 0.5% sodium carboxymethyl cellulose was orally administered thereto. To a control, only the vehicle was administered. […] The body weight was measured before and after the fasting as well as at the same time everyday. The dead animals were immediately subjected to autopsy and their organs were observed by naked eyes. Also, the living animals were sacrificed with ether or carbon dioxide one week after the administration and then their organs were observed by naked eyes.
The toxicity at the single dose of 2,000 mg/kg of the sample compound was expressed as being classified into 5 levels.
5: Mortality rate is 0%; no toxicity is found at all both in behavior and organs.
4: Mortality rate is 0%; while no toxicity is found in organs, slight toxicity is observed in behavior or body weight increase.
3: While there is a dead animal (though not all the animals are dead), no toxicity is found in organs.
2: Regardless of whether there is a dead animal or not, toxicity is found in organs.
1: All the animals are dead.

HP NCTC 11637 = experiment: AHP: Antibacterial Activity Test Against Helicobacter pyroli (agar dilution MIC); assay type: cell-based; settings: NCTC11637, 168 h, 7 days

SMILES	inhibition at 10 µM [1]	toxicity at single dose (AT), 5 levels (Slc:ICR mice)	MIC (HP NCTC 11637)
CCN1CCCC1CNC(=O)c1cc(OCC=C(C)C)ccc1OCC=C(C)C (stereo not shown) [Example 6, 1-ethyl-2-(2,5-diprenyloxybenzoylaminomethyl)pyrrolidine]	100%	3	–
CCN1CCCC1CNC(=O)c1ccc(OCC=C(C)C)c(OCC=C(C)C)c1 (stereo not shown) [Example 7, 1-ethyl-2-(3,4-diprenyloxybenzoylaminomethyl)pyrrolidine]	99.7%	3	–
CCN1CCCC1CNC(=O)c1cc(OC/C=C(\C)CCC=C(C)C)ccc1OC/C=C(\C)CCC=C(C)C (stereo not shown) [Example 10, 1-ethyl-2-(2,5-digeranyloxybenzoylaminomethyl)pyrrolidine]	100%	3	< 3.13 µg/mL
